In PubChem BioAssay AID248 (DTP/NCI, 2004):
“And” between values parts separate entries of the source, which are not always exact repeats. Equal entries are not always repeated. Toxic doses and inconclusive results are not listed. Cut-off read from the data, not from the text of the source: active = T/C of 150% or more; inactive = T/C below 125%.

Tested on: L1210 leukemia ip in BDF1 mice, survival T/C
Assay: NCI In Vivo Anticancer Drug Screen. Data for tumor model L1210 Leukemia (intraperitoneal) in B6D2F1 (BDF1) mice
Conditions: endpoint: mean survival time, higher = longer survival
Summary of the method: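 Value reflects the ratio of survival in compound-treated mice to survival in vehicle-treated controls, with both groups carrying the same transplanted tumor.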

[1] = dose: 50.0 mg/kg/injection, schedule: Q04DX002 (ip), vehicle: Klucel (hydroxypropylcellulose) (HPC)
[2] = dose: 100.0 mg/kg/injection, schedule: Q04DX002 (ip), vehicle: Klucel (hydroxypropylcellulose) (HPC)
[3] = dose: 200.0 mg/kg/injection, schedule: Q04DX002 (ip), vehicle: Klucel (hydroxypropylcellulose) (HPC)
[4] = dose: 100.0 mg/kg/injection, schedule: Q01DX001 (ip), vehicle: saline
[5] = dose: 200.0 mg/kg/injection, schedule: Q01DX001 (ip), vehicle: saline
[6] = dose: 400.0 mg/kg/injection, schedule: Q01DX001 (ip), vehicle: saline
[7] = dose: 25.0 mg/kg/injection, schedule: Q04DX003 (ip), vehicle: saline with Tween-80
[8] = dose: 100.0 mg/kg/injection, schedule: Q01DX009 (ip), vehicle: Klucel (hydroxypropylcellulose) (HPC)
[9] = dose: 100.0 mg/kg/injection, schedule: Q04DX003 (ip), vehicle: saline
[10] = dose: 200.0 mg/kg/injection, schedule: Q01DX009 (ip), vehicle: Klucel (hydroxypropylcellulose) (HPC)
[11] = dose: 200.0 mg/kg/injection, schedule: Q04DX003 (ip), vehicle: saline
[12] = dose: 400.0 mg/kg/injection, schedule: Q01DX009 (ip), vehicle: Klucel (hydroxypropylcellulose) (HPC)
[13] = dose: 400.0 mg/kg/injection, schedule: Q04DX003 (ip), vehicle: saline
[14] = dose: 50.0 mg/kg/injection, schedule: Q01DX001 (ip), vehicle: saline
[15] = dose: 50.0 mg/kg/injection, schedule: Q01DX009 (ip), vehicle: saline with Tween-80
[16] = dose: 100.0 mg/kg/injection, schedule: Q01DX009 (ip), vehicle: saline with Tween-80
[17] = dose: 100.0 mg/kg/injection, schedule: Q04DX003 (ip), vehicle: saline with Tween-80
[18] = dose: 200.0 mg/kg/injection, schedule: Q04DX003 (ip), vehicle: saline with Tween-80
[19] = dose: 50.0 mg/kg/injection, schedule: Q04DX003 (ip), vehicle: saline with Tween-80
[20] = dose: 200.0 mg/kg/injection, schedule: Q01DX009 (ip), vehicle: saline with Tween-80

Measured: T/C

CCOc1ccc(N)c(S)c1
inactive: dose: 13.3 mg/kg/injection, schedule: Q01DX Z (ip), vehicle: methylcellulose (MC) 105 % of control | dose: 20.0 mg/kg/injection, schedule: Q01DX Z (ip), vehicle: methylcellulose (MC) 97 % of control | dose: 30.0 mg/kg/injection, schedule: Q01DX Z (ip), vehicle: methylcellulose (MC) 95 % of control

O=C(COc1ccc(Cl)c(Cl)c1)NCCc1ccncc1
inactive: [1] 103 % of control | [2] 118 % of control | [3] 111 % of control

COc1cc(O)c2c(c1)C(=O)c1cc3c(c(O)c1C2=O)C(OC1OC(C)C(O)C(O)C1OC)C(OC)C(C)(O)C3=O (stereo not drawn)
inactive: [4] 92 % of control | [5] 103 % of control | [6] 97 % of control

O=C(Nc1ccccc1)Nc1ccccn1
inactive: dose: 12.5 mg/kg/injection, schedule: Q04DX003 (ip), vehicle: saline with Tween-80 95 % of control | [7] 95 % of control

CCOC(=O)C1OC12CCCCC2 (stereo not drawn)
inactive: [8] 100 % of control | [9] 92 % of control | [10] 92 % of control | [11] 96 % of control | [12] 100 % of control | [13] 89 % of control

COc1cc(OC)c(/C=C/c2ccc3ccccc3[n+]2C)c(OC)c1
inactive: dose: 0.5 mg/kg/injection, schedule: Q01DX009 (oral), vehicle: carboxymethylcellulose (CMC) 104 % of control | dose: 1.0 mg/kg/injection, schedule: Q01DX009 (oral), vehicle: carboxymethylcellulose (CMC) 103 % of control | dose: 2.0 mg/kg/injection, schedule: Q01DX009 (oral), vehicle: carboxymethylcellulose (CMC) 111 % of control | dose: 4.0 mg/kg/injection, schedule: Q01DX009 (oral), vehicle: carboxymethylcellulose (CMC) 103 % of control | dose: 8.0 mg/kg/injection, schedule: Q01DX009 (oral), vehicle: carboxymethylcellulose (CMC) 103 % of control | dose: 31.3 micrograms/kg/injection, schedule: Q04DX003 (ip), vehicle: saline 100 % of control | dose: 62.5 micrograms/kg/injection, schedule: Q04DX003 (ip), vehicle: saline 101 % of control | dose: 125.0 micrograms/kg/injection, schedule: Q04DX003 (ip), vehicle: saline 95 % of control

O=C(COc1ccc(Cl)c(Cl)c1)Nc1ccc[n+](Cc2cc(Cl)ccc2S(=O)(=O)F)c1
inactive: [4] 97 % of control | [5] 105 % of control | [6] 94 % of control

O=[N+]([O-])c1cccc2cccnc12
inactive: [14] 107 % of control | [15] 95 % of control | [4] 107 % of control | [16] 93 % of control

CCCCC(O)(CCCC)C(CC)CC
inactive: [17] 108 % of control | [18] 99 % of control | dose: 400.0 mg/kg/injection, schedule: Q04DX003 (ip), vehicle: saline with Tween-80 101 % of control

CC(NN)c1ccccc1 (stereo not drawn)
inactive: [14] 101 % of control | [4] 105 % of control

c1cc2c3c(c1)nc(CCCc1nc4cccc5c4n1CCC5)n3CCC2
inactive: [7] 109 % of control | [19] 96 % of control | [17] 93 % of control and 87 % of control

C=C(C)C1Cc2c(ccc3c(=O)c4c(oc23)COc2cc(OC)c(OC)cc2-4)O1 (stereo not drawn)
inactive: [8] 90 % of control | [10] 93 % of control | [12] 95 % of control

CC1(C)C2CCC(C2)C12CC(F)(F)C(F)(F)S2 (stereo not drawn)
inactive: dose: 12.5 mg/kg/injection, schedule: Q01DX009 (ip), vehicle: saline with Tween-80 97 % of control | dose: 25.0 mg/kg/injection, schedule: Q01DX009 (ip), vehicle: saline with Tween-80 100 % of control | [7] 101 % of control | [19] 101 % of control | [17] 103 % of control

N#Cc1ccc(/C=C/C(=O)c2ccccc2)cc1
inactive: dose: 100.0 mg/kg/injection, schedule: Q01DX001 (ip), vehicle: Klucel (hydroxypropylcellulose) (HPC) 95 % of control | [8] 96 % of control | dose: 200.0 mg/kg/injection, schedule: Q01DX001 (ip), vehicle: Klucel (hydroxypropylcellulose) (HPC) 88 % of control | [10] 93 % of control | [12] 89 % of control

N#Cc1cnc(N)cc1N
inactive: dose: 25.0 mg/kg/injection, schedule: Q01DX009 (ip), vehicle: Klucel (hydroxypropylcellulose) (HPC) 96 % of control | dose: 25.0 mg/kg/injection, schedule: Q04DX003 (ip), vehicle: Klucel (hydroxypropylcellulose) (HPC) 97 % of control | dose: 50.0 mg/kg/injection, schedule: Q01DX009 (ip), vehicle: Klucel (hydroxypropylcellulose) (HPC) 98 % of control | dose: 50.0 mg/kg/injection, schedule: Q04DX003 (ip), vehicle: Klucel (hydroxypropylcellulose) (HPC) 100 % of control | [8] 104 % of control | dose: 100.0 mg/kg/injection, schedule: Q04DX003 (ip), vehicle: Klucel (hydroxypropylcellulose) (HPC) 101 % of control and 104 % of control | dose: 200.0 mg/kg/injection, schedule: Q04DX003 (ip), vehicle: Klucel (hydroxypropylcellulose) (HPC) 113 % of control

[O-][N+](=Nc1cccc(Cl)c1)c1cccc(Cl)c1
inactive: [15] 97 % of control | [19] 102 % of control | [16] 101 % of control | [17] 98 % of control | [20] 97 % of control | [18] 112 % of control

CN1CC(=O)N=C1N
inactive: [4] 92 % of control | [5] 103 % of control | dose: 200.0 mg/kg/injection, schedule: Q01DX015 (ip), vehicle: saline 91 % of control | dose: 250.0 mg/kg/injection, schedule: Q#A X Z (ip), vehicle: water 109 % of control | [6] 92 % of control | dose: 400.0 mg/kg/injection, schedule: Q01DX015 (ip), vehicle: saline 121 % of control | dose: 500.0 mg/kg/injection, schedule: Q#A X Z (ip), vehicle: water 100 % of control | dose: 800.0 mg/kg/injection, schedule: Q01DX015 (ip), vehicle: saline 94 % of control | dose: 1250.0 mg/kg/injection, schedule: Q#A X Z (ip), vehicle: water 100 % of control | dose: 1600.0 mg/kg/injection, schedule: Q01DX015 (ip), vehicle: saline 100 % of control

OCC(O)C(O)C(O)C(O)C(O)CO (stereo not drawn)
inactive: [4] 98 % of control | [16] 96 % of control | [9] 94 % of control | [5] 106 % of control | [20] 110 % of control | [11] 97 % of control | [6] 95 % of control | dose: 400.0 mg/kg/injection, schedule: Q01DX009 (ip), vehicle: saline with Tween-80 90 % of control | [13] 106 % of control

Cc1ccc(-n2c(O)c(N=Nc3ccccc3C)c(=O)n(-c3ccc(I)cc3)c2=S)cc1
inactive: dose: 37.5 mg/kg/injection, schedule: Q01DX001 (ip), vehicle: Klucel (hydroxypropylcellulose) (HPC) 101 % of control | dose: 75.0 mg/kg/injection, schedule: Q01DX001 (ip), vehicle: Klucel (hydroxypropylcellulose) (HPC) 108 % of control | dose: 150.0 mg/kg/injection, schedule: Q01DX001 (ip), vehicle: Klucel (hydroxypropylcellulose) (HPC) 92 % of control

O=C(O)C(Sc1ccccc1)c1ccccc1 (stereo not drawn)
inactive: dose: 100.0 mg/kg/injection, schedule: Q04DX002 (ip), vehicle: gum acacia 100 % of control | dose: 200.0 mg/kg/injection, schedule: Q04DX002 (ip), vehicle: gum acacia 100 % of control | dose: 400.0 mg/kg/injection, schedule: Q04DX002 (ip), vehicle: gum acacia 104 % of control

C[C@]12CC[C@H](O)C[C@H]1CC[C@@H]1[C@@H]2CC[C@]2(C)[C@@H](C3=CC(=O)OC3)[C@@H](O)C[C@]12O
inactive: dose: 50.0 mg/kg/injection, schedule: Q01DX001 (ip), vehicle: carboxymethylcellulose (CMC) 101 % of control | dose: 100.0 mg/kg/injection, schedule: Q01DX001 (ip), vehicle: carboxymethylcellulose (CMC) 107 % of control | dose: 200.0 mg/kg/injection, schedule: Q01DX001 (ip), vehicle: carboxymethylcellulose (CMC) 101 % of control | dose: 400.0 mg/kg/injection, schedule: Q01DX001 (ip), vehicle: carboxymethylcellulose (CMC) 102 % of control

CC1(C)C(=NNc2ccc([N+](=O)[O-])cc2[N+](=O)[O-])C(C)(C)C1(Cl)Cl
inactive: [1] 97 % of control | [2] 118 % of control | [3] 105 % of control
